Test results taken from US5091539A, “Azolyl cycloalkanol derivatives and agricultural fungicides” (Shionogi & Co., Ltd., priority 1984, dated 1992).
In brackets after ≈: the same amount, converted by molar mass.

Assays:
[1] = system: powdery mildew of cucumber and Borytis rot (gray mold) of cucumber; assay: Comparative test of cis- and trans-isomers; format: in vivo; conditions: cis isomer vs trans isomer, about
Description: Each cis- and trans-isomers of 1-(4-chlorophenyl)-2-(1,2,4-triazol-1-yl)cyclohexanol (Compound 22 and the trans-isomer)) and 1-(4-fluorophenyl)-2-(1,2,4-triazol-1-yl)cyclohexanol (Compound 28 and the trans-isomer) are subjected to control test to powdery mildew of cucumber and to Borytis rot (gray mold) of cucumber.
(1) Test methods and evaluation are the same as those in Tests 2, 4 and 6.

[2] = system: Sphaerotheca fuliginea; assay: Control test to powdery mildew of cucumber (foliar and soil treatment); format: in vivo; conditions: index 0-10
[3] = system: Diaporthe citri; assay: Anti-fungal activity in vitro; format: cell-based; conditions: 48 h, GY medium, 28° C., 2 days
Experimental: (§1) (1) Each test compound was diluted by two-fold dilution with GY medium (2% glucose and 0.4% yeast extract) containing 0.01% Tween 80 (trademark). Every diluted solution was inoculated with spore suspension (10^5-5 spores/ml) of Alternaria kikuchiana or a hyphae disk with agar (4 mm in diameter) of other fungi and incubated at 28° C. for 2 days.

[4] = system: Cochiobolus sativus; assay: Anti-fungal activity in vitro; format: cell-based; conditions: 48 h; GY medium, 28° C., 2 days
Experimental: as §1

[5] = system: Alternaria kikuchiana; assay: Anti-fungal activity in vitro; format: cell-based; conditions: 48 h, GY medium, 28° C., 2 days, spore suspension
Experimental: as §1

[6] = system: Pyrenophora graminea; assay: Anti-fungal activity in vitro; format: cell-based; conditions: 48 h, GY medium, 28° C., 2 days
Experimental: as §1

[7] = system: Corticium rolfsii; assay: Anti-fungal activity in vitro; format: cell-based; conditions: Agroathelia rolfsii, 48 h; GY medium, 28° C., 2 days
Experimental: as §1

[8] = system: Ustilago nuda; assay: Anti-fungal activity in vitro; format: cell-based; conditions: 48 h, GY medium, 28° C., 2 days
Experimental: as §1

[9] = system: Monilinia fructicola; assay: Anti-fungal activity in vitro; format: cell-based; conditions: 48 h, GY medium, 28° C., 2 days
Experimental: as §1

[10] = system: Cladosporium herbarum; assay: Anti-fungal activity in vitro; format: cell-based; conditions: 48 h, GY medium, 28° C., 2 days
Experimental: as §1

[11] = system: Botrytis cinerea; assay: Control test of Botrytis rot (gray mold) of cucumber; format: in vivo
[12] = system: Sclerotinia sclerotiorum; assay: Control test to Sclerotinia rot of cucumber; format: in vivo
Description: (1) This test was practised in the same manner as in the above test, control test of Botrytis rot (gray mold) of cucumber, except for using the mycelium of Sclerotinia sclerotiorum as inoculm. The same as in test 2.

[13] = system: Sphaerotheca fuliginea; assay: Control test to powdery mildew of cucumber by vapor (filter paper disks); format: in vivo; on Protective Effect by Vapor: key: +: an inhibition zone was observed around the plate; ±: the inhibition zone has nearly the same diameter (8 mm) as that of plate; -: there is no inhibition zone
Method in brief: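 Cucumber (Matsukaze) first leaves inoculated with Sphaerotheca fuliginea; after 2 days, filter paper disks with 80 μl test solution at 31.3, 7.8, 2.0 or 0.5 ppm placed on 15 mm cover plates over leaves for 3 days. Inhibition zone around plate scored +, ± or - 14 days post-inoculation.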

[14] = system: Puccinia coronata; assay: Control test of crown rust of oat; format: in vivo
Method in brief: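 Greenhouse oats (cv. Pc38) were sprayed with test solution either before inoculation with Puccinia coronata uredospores (protective) or 3 days after it. Plants were kept at 20°-25° C. for 2 weeks, then uredia on the first leaf were counted.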

SMILES: O[C@@]1(c2ccc(Cl)cc2)CCCC[C@H]1n1cncn1 (relative stereo) [Compound 22, cis-1-(4-chlorophenyl)-2-(1,2,4-triazol-1-yl)cyclohexanol]
- times more effective than the corresponding trans isomer [1]: 4-16 times
- Powdery mildew, Foliar Treatment, Curative Effect ([2]; Table 9, 0.03 ppm): 9
- Powdery mildew, Foliar Treatment, Protective Effect ([2]; Table 9, 0.03 ppm): 0
- Powdery mildew, Foliar Treatment, Curative Effect ([2]; Table 9, 0.12 ppm): 10
- Powdery mildew, Foliar Treatment, Protective Effect ([2]; Table 9, 0.12 ppm): 9
- Powdery mildew, Foliar Treatment, Curative Effect ([2]; Table 9, 0.5 ppm): 10
- Powdery mildew, Foliar Treatment, Protective Effect ([2]; Table 9, 0.5 ppm): 10
- Powdery mildew, Soil Treatment, Protective Effect ([2]; Table 9, 0.5 ppm): 0
- Powdery mildew, Foliar Treatment, Curative Effect ([2]; Table 9, 2.0 ppm): 10
- Powdery mildew, Foliar Treatment, Protective Effect ([2]; Table 9, 2.0 ppm): 10
- Powdery mildew, Soil Treatment, Protective Effect ([2]; Table 9, 2.0 ppm): 10
- Powdery mildew, Soil Treatment, Protective Effect ([2]; Table 9, 7.8 ppm): 10
- Powdery mildew, Soil Treatment, Protective Effect ([2]; Table 9, 31.3 ppm): 10
- Foliar Treatment, Curative Effect ([2]; second Table 4, 0.5 ppm): 10
- Foliar Treatment, Protective Effect ([2]; second Table 4, 0.5 ppm): 5 (Disease sign is observed on the leaf in about 30%.)
- Soil Treatment, Protective Effect ([2]; second Table 4, 0.5 ppm): 0
- Foliar Treatment, Curative Effect ([2]; second Table 4, 2.0 ppm): 10
- Foliar Treatment, Protective Effect ([2]; second Table 4, 2.0 ppm): 10
- Soil Treatment, Protective Effect ([2]; second Table 4, 2.0 ppm): 5 (Disease sign is observed on the leaf in about 30%.)
- Foliar Treatment, Curative Effect ([2]; second Table 4, 7.8 ppm): 10
- Foliar Treatment, Protective Effect ([2]; second Table 4, 7.8 ppm): 10
- Soil Treatment, Protective Effect ([2]; second Table 4, 7.8 ppm): 10
- Foliar Treatment, Curative Effect ([2]; second Table 4, 31.3 ppm): 10
- Foliar Treatment, Protective Effect ([2]; second Table 4, 31.3 ppm): 10
- Soil Treatment, Protective Effect ([2]; second Table 4, 31.3 ppm): 10
- MIC [3]: 12.5 µg/mL (≈ 45 µM)
- MIC [4]: 6.25 µg/mL (≈ 22.5 µM)
- MIC [5]: 50 µg/mL (≈ 180 µM)
- MIC [6]: 12.5 µg/mL (≈ 45 µM)
- MIC [7]: > 50 µg/mL
- MIC [8]: 12.5 µg/mL (≈ 45 µM)
- MIC [9]: 0.78 µg/mL (≈ 2.81 µM)
- MIC [10]: 6.25 µg/mL (≈ 22.5 µM)
- Percent Disease Control, Curative Spraying ([11]; Table 2, 31.3 ppm): 46%
- Percent Disease Control, Protective Spraying ([11]; Table 2, 31.3 ppm): 100%
- Percent Disease Control, Curative Spraying ([11]; Table 2, 125 ppm): 89%
- Percent Disease Control, Protective Spraying ([11]; Table 2, 125 ppm): 100%
- Gray Mold, Percent Disease Control, Curative Spraying ([11]; Table 9, 7.8 ppm): 20%
- Gray Mold, Percent Disease Control, Protective Spraying ([11]; Table 9, 7.8 ppm): 35%
- Gray Mold, Percent Disease Control, Curative Spraying ([11]; Table 9, 31.3 ppm): 88%
- Gray Mold, Percent Disease Control, Protective Spraying ([11]; Table 9, 31.3 ppm): 62%
- Gray Mold, Percent Disease Control, Curative Spraying ([11]; Table 9, 125 ppm): 82%
- Gray Mold, Percent Disease Control, Protective Spraying ([11]; Table 9, 125 ppm): 78%
- Percent Disease Control, Curative Spraying ([12]; 31.3 ppm): 93%
- Percent Disease Control, Protective Spraying ([12]; 31.3 ppm): 67%
- Percent Disease Control, Curative Spraying ([12]; 125 ppm): 95%
- Percent Disease Control, Protective Spraying ([12]; 125 ppm): 100%
- Protective Effect by Vapor ([13]; Table 6, 0.5 ppm): -
- Protective Effect by Vapor ([13]; Table 6, 2.0 ppm): -
- Protective Effect by Vapor ([13]; Table 6, 7.8 ppm): +
- Protective Effect by Vapor ([13]; Table 6, 31.3 ppm): +
- Powdery mildew, Vapor Effect ([13]; Table 9, 2.0 ppm): -
- Powdery mildew, Vapor Effect ([13]; Table 9, 7.8 ppm): ±
- Powdery mildew, Vapor Effect ([13]; Table 9, 31.3 ppm): +
- Percent Disease Control, Curative Spraying ([14]; 12.5 ppm): 64%
- Percent Disease Control, Protective Spraying ([14]; 12.5 ppm): 100%
- Percent Disease Control, Curative Spraying ([14]; 25 ppm): 88%
- Percent Disease Control, Protective Spraying ([14]; 25 ppm): 100%
- Percent Disease Control, Curative Spraying ([14]; 50 ppm): 100%
- Percent Disease Control, Protective Spraying ([14]; 50 ppm): 100%
